# Measured values reported in PubChem BioAssay (NCI).
#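 A five-concentration, 48-hour dose response in 96-well plates underlies each endpoint, interpolated linearly between surrounding concentrations. TGI marks complete inhibition of growth.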
# Tests used:
# Test in all cases: NCI anticancer screen, dose series, 48 h
# [1] = tested on: MOLT-4 leukemia
# [2] = tested on: NCI-H522 lung
# [3] = tested on: IGROV1 ovarian
# [4] = tested on: RXF 393 renal
# [5] = tested on: UACC-62 melanoma
# [6] = tested on: ACHN renal
# [7] = tested on: SNB-75 CNS
# [8] = tested on: HCC-2998 colon
# [9] = tested on: HS 578T breast
# [10] = tested on: OVCAR-8 ovarian
# [11] = tested on: DU-145 prostate
# [12] = tested on: SF-268 CNS
# [13] = tested on: NCI-H460 lung
# [14] = tested on: K-562 leukemia
# [15] = tested on: U251 CNS
# [16] = tested on: UACC-257 melanoma
# [17] = tested on: SK-MEL-28 melanoma
# [18] = tested on: NCI-H23 lung
SMILES,TGI [1] [µM],TGI [2] [µM],TGI [3] [µM],TGI [4] [µM],TGI [5] [µM],TGI [6] [µM],TGI [7] [µM],TGI [8] [µM],TGI [9] [µM],TGI [10] [µM],TGI [11] [µM],TGI [12] [µM],TGI [13] [µM],TGI [14] [µM],TGI [15] [µM],TGI [16] [µM],TGI [17] [µM],TGI [18] [µM]
CCn1c(-c2ccc(C)cc2)cs/c1=N\C(P(=O)(O)O)P(=O)(O)O,> 100,> 100,> 100,> 100,> 100,> 100,> 100,> 100,> 100,> 100,> 100,> 100,> 100,> 100,> 100,> 100,> 100,> 100
CC1=C(C(=O)Nc2ccccc2)C(c2ccc(C)o2)C(C#N)=C(SCc2ccccc2)N1 (centres undefined),> 100,> 100,> 100,> 100,> 100,> 100,> 100,> 100,> 100,> 100,> 100,> 100,> 100,> 100,> 100,> 100,> 100,> 100
Nc1nc(N)c2nnn(C[C@H]3CC[C@@H](CO)C3)c2n1,> 100,> 100,> 100,> 100,> 100,> 100,> 100,> 100,> 100,> 100,> 100,> 100,> 100,> 100,> 100,> 100,> 100,> 100
O=C1OC(C2OC(=O)c3cc(O)c(O)c(O)c3-c3c(O)c(O)c4oc(=O)c5c(c(O)c(O)c6oc(=O)c3c4c65)-c3c(cc(O)c(O)c3O)C(=O)OCC2O)C2OC(=O)c3c(c(O)c(O)c(O)c3[C@H]2O)-c2c1cc(O)c(O)c2O (some centres undefined),65.3,44.5,> 100,73.5,56.5,80.3,63.7,> 100,> 100,47.7,> 100,78.5,> 100,42.5,57.6,> 100,> 100,41.2
O=C1OC[C@@H]2Cc3c([nH]c4ccccc34)[C@@H](c3cc(O)c(O)c(O)c3)N12,85.9,22.8,49.7,45.6,75.5,> 100,60.9,> 100,76.2,41.8,> 100,> 100,> 100,58.7,59.8,9.73,42.9,98.6
NCCCc1c(-c2ccccc2)nc(N)[nH]c1=O,> 100,> 100,> 100,> 100,> 100,> 100,> 100,> 100,> 100,> 100,> 100,> 100,> 100,> 100,> 100,> 100,> 100,> 100
COC(OC)(c1ccccc1)C(I)I,> 49.8,6.98,27.4,10.4,26.6,31.9,26.3,> 58.3,62.4,35.1,> 67.7,46.1,37.7,> 35.4,33,8.73,30.7,50.7
Cc1ccc(S(=O)(=O)/N=C(\[O-])C2=C(c3ccccc3)NN(C)c3nc4cccc[n+]4nc32)cc1,> 100,> 100,> 100,> 100,> 100,> 100,> 100,> 100,> 100,> 100,> 100,> 100,> 100,> 100,> 100,> 100,> 100,> 100
CC1(C)C[C@H](O)[C@H](O)[C@]23C(=O)O[C@H](O)[C@H]2C(C=O)=CC[C@@H]13,> 100,> 100,> 100,> 100,> 100,> 100,> 100,> 100,> 100,> 100,> 100,> 100,> 100,> 100,> 100,> 100,> 100,> 100
CC(C)(C)OC(=O)NC(Cc1ccc(OCc2ccccc2)cn1)C(=O)N1CCSCC1 (centres undefined),59.1,> 100,> 100,88.5,> 100,> 100,76.5,> 100,> 100,> 100,> 100,> 100,> 100,> 100,> 100,82.5,> 100,> 100
CC(=O)N1N=C(N)CC1=O,> 100,> 100,> 100,> 100,> 100,> 100,> 100,> 100,> 100,> 100,> 100,> 100,> 100,> 100,> 100,> 100,> 100,> 100
COc1cc2c(cc1OC)C(Cc1ccccc1CCCl)=NCC2,> 100,> 100,> 100,> 100,> 100,> 100,> 100,> 100,> 100,> 100,> 100,> 100,> 100,> 100,> 100,> 100,> 100,> 100
Cc1ccc(/C=N/Nc2nncc3ccccc23)s1,> 100,> 100,> 100,> 100,> 100,> 100,> 75.9,> 100,> 100,> 100,> 31.6,> 100,> 100,> 100,> 100,> 100,> 100,> 100
Cc1ccc(O)c(-c2csc(NCN3CCN(CNc4nc(-c5cc(C)ccc5O)cs4)CC3)n2)c1,> 100,> 100,> 100,> 100,> 100,> 100,> 100,> 100,> 100,> 100,> 100,> 100,> 100,> 100,> 100,> 100,> 100,> 100
Nn1c(SCC(=O)NCc2ccccc2)nc2ccccc2c1=O,49.5,> 100,> 100,> 100,> 100,> 100,> 100,> 100,> 100,> 100,> 100,> 100,> 100,> 100,> 100,> 100,> 100,> 100
O=c1[nH]c2ccc(CC(=S)N3CCN(c4ccccc4)CC3)cc2o1,> 100,> 100,> 100,> 100,> 100,> 100,> 94.7,> 100,> 100,> 100,> 100,> 100,> 100,> 100,> 100,> 100,> 100,> 100
COc1cc2c3c(n(Cc4ccccc4)c(=O)c2cc1OC)-c1ccccc1C3=O,> 100,> 100,> 100,> 100,> 100,> 100,> 100,> 100,> 100,> 100,> 100,> 100,> 100,> 100,> 100,> 100,> 100,> 100
COC1(OC)C2(Cl)C(Cl)=C(Cl)C1(Cl)C1COCC12 (centres undefined),> 100,> 100,> 100,> 100,> 100,> 100,> 100,> 100,> 100,> 100,> 100,> 100,> 100,> 100,> 75,> 100,> 55.4,> 71.2
